In PubChem BioAssay AID977614 (Broad Institute, 2014):
Active and inactive are the calls of the source.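 The calls were made as follows: active = parasite count per well reduced by over 3 SD from the mean, with host cell number above 80% of untreated; inactive = the rest.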

system: L. donovani amastigotes in THP-1 macrophages, DAPI imaging, 72 h; experiment: L. donovani intracellular amastigote growth inhibitors, imaging, THP-1 host macrophages, single concentration (AID 977614);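 also: signal is the parasite per host cell ratio from DAPI stained kinetoplasts and nuclei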

SMILES | AC50
O=C(Nc1ccc(Cl)cc1)N1C[C@H]2[C@@H](c3ccccc31)[C@@H](CO)N2CC1CCCCC1 | > 10 µM (inactive)
C[C@@H]1CN([C@H](C)CO)C(=O)CCCn2nncc2CO[C@H]1CN(C)S(=O)(=O)c1ccc(Oc2ccccc2)nc1 | > 10 µM (inactive)
O=C(c1ccccc1F)N1C[C@@H]2[C@H](c3ccccc31)[C@@H](CO)N2Cc1ccc2c(c1)OCO2 | > 10 µM (inactive)
Cc1noc(C)c1NC(=O)N(C)C[C@H]1OCc2cnnn2CCCC(=O)N([C@@H](C)CO)C[C@@H]1C | > 10 µM (inactive)
OC[C@@H]1[C@@H]2c3ccccc3NC[C@@H]2N1Cc1cccnc1 | > 10 µM (inactive)
O=C(CC(F)(F)F)N1C[C@H]2[C@@H](c3ccccc31)[C@H](CO)N2C(=O)C1CCCCC1 | > 10 µM (inactive)
Cc1cccc(S(=O)(=O)N2C[C@H]3[C@@H](c4ccccc42)[C@H](CO)N3CC2CCCC2)c1 | > 10 µM (inactive)
C/C=C/c1ccc([C@@H]2[C@@H](CO)N(C(C)=O)[C@H]2CNC(=O)c2ccccc2)cc1 | > 10 µM (inactive)
Cc1ccc(S(=O)(=O)N2C[C@@H]3[C@H](c4ccccc42)[C@H](CO)N3Cc2cccnc2)cc1 | > 10 µM (inactive)
CCC(=O)N1C[C@H]2[C@@H](c3ccccc31)[C@@H](CO)N2Cc1ccc(F)cc1 | > 10 µM (inactive)
COc1ccccc1S(=O)(=O)N(C)C[C@H]1OCc2cn(nn2)CCCC(=O)N([C@@H](C)CO)C[C@@H]1C | > 10 µM (inactive)
C[C@@H]1CN([C@H](C)CO)C(=O)CCCn2nncc2CO[C@H]1CN(C)Cc1ccc(C(=O)Nc2ccccc2N)cc1 | > 10 µM (inactive)
C[C@H](CO)N1C[C@H](C)[C@@H](CN(C)C(=O)Nc2ccc3c(c2)OCCO3)OCc2cnnn2CCCC1=O | > 10 µM (inactive)
O=S(=O)(NC[C@@H]1[C@@H](c2ccccc2)[C@H](CO)N1CC1CC1)c1ccccc1 | > 10 µM (inactive)
O=C(Cc1cccnc1)N1[C@H](CO)[C@H](c2ccccc2)[C@H]1CNCC1CCC1 | > 10 µM (inactive)
O=C(C1CCCCC1)N1[C@H](CO)[C@@H]2c3ccccc3NC[C@@H]21 | > 10 µM (inactive)
C[C@H]1CN([C@@H](C)CO)C(=O)CCCn2cc(nn2)CO[C@H]1CN(C)C(=O)Nc1cccc(C(F)(F)F)c1 | > 10 µM (inactive)
CCCNC(=O)N1[C@@H]2CN(C(=O)c3ccncc3)c3ccccc3[C@@H]2[C@@H]1CO | > 10 µM (inactive)
C[C@@H]1CN([C@@H](C)CO)C(=O)CCCn2nncc2CO[C@H]1CN(C)Cc1ccc2cccnc2c1 | > 10 µM (inactive)
C[C@H]1CN([C@@H](C)CO)C(=O)CCCn2nncc2CO[C@@H]1CN(C)C(=O)Nc1cccc(Oc2ccccn2)c1 | > 10 µM (inactive)
COc1ccccc1CN1[C@@H](CO)[C@@H]2c3ccccc3N(C(=O)C3CCOCC3)C[C@@H]21 | > 10 µM (inactive)
CNC[C@H]1OCc2cnnn2CCCC(=O)N([C@H](C)CO)C[C@H]1C | > 10 µM (inactive)
C[C@H](CO)N1C[C@H](C)[C@H](CN(C)Cc2cccc(C(F)(F)F)c2)OCc2cnnn2CCCC1=O | > 10 µM (inactive)
CNC[C@H]1OCc2cn(nn2)CCCC(=O)N([C@H](C)CO)C[C@H]1C | > 10 µM (inactive)
O=C(CC1CC1)N1[C@@H]2CN(S(=O)(=O)c3ccccc3F)c3ccccc3[C@@H]2[C@@H]1CO | > 10 µM (inactive)
O=C(Nc1cccc(Cl)c1)N1C[C@H]2[C@@H](c3ccccc31)[C@@H](CO)N2Cc1cccnc1 | > 10 µM (inactive)

SMILES | AC50
C[C@@H]1CN([C@@H](C)CO)C(=O)CCCn2nncc2CO[C@@H]1CN(C)C(=O)NC1CCCC1 | > 10 µM (inactive)
CC(=O)N1[C@H](CO)[C@@H]2c3ccccc3N(S(=O)(=O)c3ccccc3C)C[C@@H]21 | > 10 µM (inactive)
CC(=O)N1[C@H](CO)[C@H](c2ccccc2)[C@@H]1CN(CC(C)C)C(=O)c1ccccn1 | > 10 µM (inactive)
CCCNC[C@H]1[C@@H](c2ccc(-c3cccc(C#N)c3)cc2)[C@@H](CO)N1C(C)=O | > 10 µM (inactive)
CN1C[C@@H]2[C@H](c3ccccc31)[C@@H](CO)N2C(=O)C1CCOCC1 | > 10 µM (inactive)
CCCC(=O)N1C[C@H]2[C@@H](c3ccccc31)[C@@H](CO)N2Cc1cocn1 | > 10 µM (inactive)
CNC[C@H]1OCc2cnnn2CCCC(=O)N([C@@H](C)CO)C[C@H]1C | > 10 µM (inactive)
COc1ccc(CN2[C@H](CO)[C@H]3c4ccccc4N(C(=O)NC(C)C)C[C@H]32)cc1 | > 10 µM (inactive)
CC(=O)N1[C@H](CO)[C@@H](c2ccccc2)[C@H]1CN(CC1CCC1)C(=O)CN(C)C | > 10 µM (inactive)
CNC[C@H]1OCc2cnnn2CCCC(=O)N([C@H](C)CO)C[C@@H]1C | > 10 µM (inactive)
Cc1noc(C)c1S(=O)(=O)N(C)C[C@H]1OCc2cn(nn2)CCCC(=O)N([C@@H](C)CO)C[C@@H]1C | > 10 µM (inactive)
COc1ccccc1-c1ccc([C@H]2[C@@H](CO)N(C(C)=O)[C@H]2CN(C)C(C)=O)cc1 | > 10 µM (inactive)
CCN(C[C@@H]1[C@@H](c2ccc(-c3cccnc3)cc2)[C@@H](CO)N1C(C)=O)C(C)=O | > 10 µM (inactive)
COc1ccccc1-c1ccc([C@H]2[C@@H](CO)N[C@@H]2CNC(=O)C2CC2)cc1 | > 10 µM (inactive)
O=C(c1ccccc1F)N1C[C@@H]2[C@H](c3ccccc31)[C@H](CO)N2C(=O)Nc1ccccc1 | > 10 µM (inactive)
CCCC(=O)N1C[C@H]2[C@@H](c3ccccc31)[C@H](CO)N2C(=O)Nc1ccc(F)cc1 | > 10 µM (inactive)
C[C@H]1CN([C@@H](C)CO)C(=O)CCCn2nncc2CO[C@H]1CN(C)Cc1ccc2c(c1)OCCN2C | > 10 µM (inactive)
C/C=C/c1ccc([C@H]2[C@@H](CO)N(C(=O)C3CC3)[C@@H]2CNC(=O)NC(C)C)cc1 | > 10 µM (inactive)
C[C@@H]1CN([C@H](C)CO)C(=O)CCCn2cc(nn2)CO[C@@H]1CN(C)C(=O)c1ccc(N2CCN(C)CC2)cc1 | > 10 µM (inactive)
CCC(=O)N1[C@H](CO)[C@@H](c2ccccc2)[C@H]1CN(C)C(=O)CN1CCOCC1 | > 10 µM (inactive)
COc1ccccc1S(=O)(=O)N(C)C[C@H]1OCc2cn(nn2)CCCC(=O)N([C@H](C)CO)C[C@H]1C | > 10 µM (inactive)
C[C@@H]1CN([C@@H](C)CO)C(=O)CCCn2nncc2CO[C@@H]1CN(C)S(=O)(=O)c1ccc2c(c1)OCCCO2 | > 10 µM (inactive)
COCC(=O)N(C)C[C@@H]1[C@@H](c2ccccc2)[C@H](CO)N1C(=O)Cc1ccncc1 | > 10 µM (inactive)
C[C@H]1CN([C@@H](C)CO)C(=O)CCCn2nncc2CO[C@@H]1CN(C)S(=O)(=O)c1cn(C)cn1 | > 10 µM (inactive)
C/C=C/c1ccc([C@H]2[C@@H](CNC(=O)NC(C)C)N(C(=O)C3CC3)[C@H]2CO)cc1 | > 10 µM (inactive)
Cc1cccc(S(=O)(=O)N2C[C@H]3[C@@H](c4ccccc42)[C@@H](CO)N3C(=O)c2ccccc2)c1 | > 10 µM (inactive)

SMILES | AC50
O=C(NC[C@@H]1[C@@H](c2ccccc2)[C@@H](CO)N1Cc1cccnc1)c1ccccn1 | > 10 µM (inactive)
COCC(=O)N(C[C@H]1N[C@H](CO)[C@@H]1c1ccc(-c2cncnc2)cc1)C(C)C | > 10 µM (inactive)
O=C(c1ccccc1F)N1C[C@H]2[C@@H](c3ccccc31)[C@@H](CO)N2C(=O)Nc1ccccc1 | > 10 µM (inactive)
CC(C)NC(=O)N1[C@H](CO)[C@@H](c2ccccc2)[C@H]1CN(C)C(=O)c1cccnc1 | > 10 µM (inactive)
C[C@H](CO)N1C[C@H](C)[C@H](CN(C)C(=O)Oc2ccc3ccccc3c2)OCc2cn(nn2)CCCC1=O | > 10 µM (inactive)
COc1ccc(CN2[C@@H]3CNc4ccccc4[C@@H]3[C@@H]2CO)cc1 | > 10 µM (inactive)
CC(=O)N1[C@H](CN(CC(C)C)C(=O)c2ccccn2)[C@@H](c2ccccc2)[C@@H]1CO | > 10 µM (inactive)
O=C(Nc1ccccc1Cl)N1C[C@H]2[C@@H](c3ccccc31)[C@H](CO)N2C(=O)c1cccnc1 | > 10 µM (inactive)
COc1ccccc1-c1ccc([C@H]2[C@@H](CO)N(C(C)=O)[C@@H]2CN(C)C(C)=O)cc1 | > 10 µM (inactive)
CC(=O)N1[C@H](CNC(=O)C2CC2)[C@@H](c2ccc(-c3ccccc3)cc2)[C@@H]1CO | > 10 µM (inactive)
C[C@H](CO)N1C[C@H](C)[C@@H](CN(C)C(=O)Oc2cccc3ccccc23)OCc2cnnn2CCCC1=O | > 10 µM (inactive)
CCCNC(=O)N1C[C@H]2[C@@H](c3ccccc31)[C@@H](CO)N2C(=O)Nc1ccccc1F | > 10 µM (inactive)
COCC(=O)N1C[C@@H]2[C@H](c3ccccc31)[C@H](CO)N2Cc1cc(F)ccc1F | > 10 µM (inactive)
O=C(C1CC1)N1C[C@@H]2[C@H](c3ccccc31)[C@H](CO)N2C(=O)c1ccccc1 | > 10 µM (inactive)
OC[C@H]1N[C@@H](CNCC2CCC2)[C@@H]1c1ccc(C2=CCCCC2)cc1 | > 10 µM (inactive)
C[C@@H]1CN([C@@H](C)CO)C(=O)CCCn2nncc2CO[C@H]1CN(C)S(=O)(=O)c1ccc(Oc2ccccc2)nc1 | > 10 µM (inactive)
CN(C[C@@H]1N[C@H](CO)[C@@H]1c1ccc(C#CCC2CCCC2)cc1)S(C)(=O)=O | > 10 µM (inactive)
CC(C)N(C[C@H]1N[C@H](CO)[C@H]1c1ccccc1)S(=O)(=O)c1ccccc1 | > 10 µM (inactive)
C[C@@H]1CN([C@@H](C)CO)C(=O)CCCn2nncc2CO[C@H]1CN(C)Cc1ccc(C(=O)Nc2ccccc2N)cc1 | > 10 µM (inactive)
C[C@H]1CN([C@@H](C)CO)C(=O)CCCn2nncc2CO[C@H]1CN(C)C(=O)CCC(F)(F)F | > 10 µM (inactive)
Cc1noc(C)c1NC(=O)N(C)C[C@@H]1OCc2cnnn2CCCC(=O)N([C@H](C)CO)C[C@@H]1C | > 10 µM (inactive)
C[C@H](CO)N1C[C@H](C)[C@@H](CN(C)C(=O)Nc2ccccc2C(F)(F)F)OCc2cnnn2CCCC1=O | > 10 µM (inactive)
CC(=O)N1[C@H](CNC(=O)CN(C)C)[C@H](c2ccc(C3=CCCCC3)cc2)[C@@H]1CO | > 10 µM (inactive)
O=S(=O)(NC[C@@H]1[C@@H](c2ccccc2)[C@@H](CO)N1CC1CC1)c1ccccc1 | > 10 µM (inactive)
